The first assay relates to Mus musculus. The assay is described as follows: Effect on hypothermia in Swiss albino mouse assessed as change in rectal body temperature at 20 mg/kg, ip after 30 mins by inducible hypothermia test.
Settings: not given
On the set-up: dose 20 mg/kg. The class given is functional, organism-based.
Take `COc1ccccc1-c1c2n(c(=O)n(CCCCN3CCC(c4c[nH]c5ccccc45)CC3)c1=O)CCCC2`: the deltaT was -0.7 °C.

For the next assay, the system named is Mus musculus. Description: Effect on hypothermia in Swiss albino mouse assessed as change in rectal body temperature at 10 mg/kg, ip after 30 mins by inducible hypothermia test. The class given is functional, organism-based. More on the design: dose 10 mg/kg.
Settings: not given
Regarding `COc1ccccc1-c1c2n(c(=O)n(CCCCN3CCC(c4c[nH]c5ccccc45)CC3)c1=O)CCCC2`, the deltaT is -0.9 °C.

For `O=c1c(-c2ccccc2)c2n(c(=O)n1CCCCN1CCC(c3c[nH]c4ccccc34)CC1)CCCC2`, the deltaT is -1.1 °C.

Another assay relates to Mus musculus. Description: Effect on hypothermia in Swiss albino mouse assessed as change in rectal body temperature at 20 mg/kg, ip after 120 mins by inducible hypothermia test. The class given is functional, organism-based. On the set-up: dose 20 mg/kg.
Settings: not given
With `COc1ccccc1-c1c2n(c(=O)n(CCCCN3CCC(c4c[nH]c5ccccc45)CC3)c1=O)CCCC2`, the deltaT was 0 °C.

In the next assay the test system is Mus musculus. The assay is described as follows: Effect on hypothermia in Swiss albino mouse assessed as change in rectal body temperature at 10 mg/kg, ip after 60 mins by inducible hypothermia test. The class given is functional, organism-based. More on the design: dose 10 mg/kg.
Settings: not given
For the molecule `COc1ccccc1-c1c2n(c(=O)n(CCCCN3CCC(c4c[nH]c5ccccc45)CC3)c1=O)CCCC2`, the deltaT was -0.5 °C.

With `O=c1c(-c2ccccc2)c2n(c(=O)n1CCCCN1CCC(c3c[nH]c4ccccc34)CC1)CCCC2`, the deltaT is -0.3 °C.

The test system of a further assay is Mus musculus. The assay is described as follows: Effect on hypothermia in Swiss albino mouse assessed as change in rectal body temperature at 5 mg/kg, ip after 60 mins by inducible hypothermia test. In kind it is functional, organism-based. On the set-up: dose 5 mg/kg.
Settings: not given
As to `COc1ccccc1-c1c2n(c(=O)n(CCCCN3CCC(c4c[nH]c5ccccc45)CC3)c1=O)CCCC2`, the deltaT is -0.5 °C.

For the molecule `O=c1c(-c2ccccc2)c2n(c(=O)n1CCCCN1CCC(c3c[nH]c4ccccc34)CC1)CCCC2`, the deltaT was -0.3 °C.

The next assay has as its target T1, 5-hydroxytryptamine receptor 1A (Rattus norvegicus, UniProt P19327).
T1 sequence (P19327 whole entry): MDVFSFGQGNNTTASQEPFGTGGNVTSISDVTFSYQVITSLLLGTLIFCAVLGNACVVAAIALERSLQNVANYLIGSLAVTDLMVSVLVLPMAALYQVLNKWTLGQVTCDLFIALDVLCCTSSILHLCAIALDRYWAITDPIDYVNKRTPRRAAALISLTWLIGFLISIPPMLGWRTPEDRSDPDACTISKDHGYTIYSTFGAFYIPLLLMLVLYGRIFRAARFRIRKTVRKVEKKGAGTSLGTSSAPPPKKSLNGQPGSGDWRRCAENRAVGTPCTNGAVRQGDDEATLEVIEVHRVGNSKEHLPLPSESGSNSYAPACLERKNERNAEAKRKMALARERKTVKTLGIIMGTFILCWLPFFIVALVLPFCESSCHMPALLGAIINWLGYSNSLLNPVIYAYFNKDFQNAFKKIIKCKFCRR
The assay is described as follows: Displacement of [3H]8-OH-DPAT from 5-HT1A receptor in rat hippocampus. The class given is tissue-based.
Settings: not given
Background: In a radioligand displacement assay an active substance lowers the binding of a labelled ligand.
In turn, `COc1ccccc1-c1c2n(c(=O)n(CCCCN3CCC(c4c[nH]c5ccccc45)CC3)c1=O)CCCC2` had an inhibition constant (Ki) of 19.9 nM.

With `O=c1c(-c2ccccc2)c2n(c(=O)n1CCCCN1CCC(c3c[nH]c4ccccc34)CC1)CCCC2`, the Ki was determined as 28.3 nM.

Another assay has as its system Mus musculus. Description: Effect on hypothermia in Swiss albino mouse assessed as change in rectal body temperature at 10 mg/kg, ip after 90 mins by inducible hypothermia test. More on the design: dose 10 mg/kg. In kind it is functional, organism-based.
Settings: not given
Take `COc1ccccc1-c1c2n(c(=O)n(CCCCN3CCC(c4c[nH]c5ccccc45)CC3)c1=O)CCCC2`: the deltaT was -0.3 °C.

As to `O=c1c(-c2ccccc2)c2n(c(=O)n1CCCCN1CCC(c3c[nH]c4ccccc34)CC1)CCCC2`, the deltaT was -0.2 °C.

A further assay has as its system Mus musculus. Description: Effect on hypothermia in Swiss albino mouse assessed as change in rectal body temperature at 20 mg/kg, ip dosed 15 mins after 0.1 mg/kg, sc WAY 100635 challenge measured after 60 mins by inducible hypothermia test. In kind it is functional, organism-based.
Settings: not given
As for `COc1ccccc1-c1c2n(c(=O)n(CCCCN3CCC(c4c[nH]c5ccccc45)CC3)c1=O)CCCC2`, the deltaT is -0.1 °C.

Another assay deals with Sodium-dependent serotonin transporter (Rattus norvegicus, UniProt P31652). Description: Displacement of [3H]citalopram from SERT in rat cerebral cortex by liquid scintillation counting. The class given is tissue-based.
Chain of Sodium-dependent serotonin transporter (P31652 whole entry): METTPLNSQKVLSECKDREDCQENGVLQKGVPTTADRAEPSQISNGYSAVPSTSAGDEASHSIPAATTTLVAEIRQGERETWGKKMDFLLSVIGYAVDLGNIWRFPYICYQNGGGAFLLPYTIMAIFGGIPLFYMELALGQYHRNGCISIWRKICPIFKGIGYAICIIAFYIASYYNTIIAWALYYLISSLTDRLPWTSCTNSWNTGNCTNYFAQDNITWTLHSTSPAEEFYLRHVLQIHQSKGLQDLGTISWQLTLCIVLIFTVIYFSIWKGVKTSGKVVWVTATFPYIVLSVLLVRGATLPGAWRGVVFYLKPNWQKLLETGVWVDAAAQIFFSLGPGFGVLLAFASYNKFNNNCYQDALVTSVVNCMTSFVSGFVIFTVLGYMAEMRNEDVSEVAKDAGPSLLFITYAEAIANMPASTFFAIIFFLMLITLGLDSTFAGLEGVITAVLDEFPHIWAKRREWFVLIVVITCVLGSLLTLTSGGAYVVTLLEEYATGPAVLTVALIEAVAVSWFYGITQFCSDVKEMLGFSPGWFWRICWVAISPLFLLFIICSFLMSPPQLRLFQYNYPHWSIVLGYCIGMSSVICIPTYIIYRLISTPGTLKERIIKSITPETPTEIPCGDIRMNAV
Settings: not given
Molecule `COc1ccccc1-c1c2n(c(=O)n(CCCCN3CCC(c4c[nH]c5ccccc45)CC3)c1=O)CCCC2` registered an inhibition constant (Ki) of 134 nM.

Molecule `O=c1c(-c2ccccc2)c2n(c(=O)n1CCCCN1CCC(c3c[nH]c4ccccc34)CC1)CCCC2` yielded an inhibition constant (Ki) of 81.7 nM.

A further assay concerns Mus musculus. Description: Effect on hypothermia in Swiss albino mouse assessed as change in rectal body temperature at 20 mg/kg, ip dosed 15 mins after 0.1 mg/kg, sc WAY 100635 challenge measured after 30 mins by inducible hypothermia test. The class given is functional, organism-based.
Settings: not given
As for `COc1ccccc1-c1c2n(c(=O)n(CCCCN3CCC(c4c[nH]c5ccccc45)CC3)c1=O)CCCC2`, the deltaT is -0.3 °C.

For the next assay, the system named is Mus musculus. Description: Effect on hypothermia in Swiss albino mouse assessed as change in rectal body temperature at 5 mg/kg, ip after 90 mins by inducible hypothermia test. The class given is functional, organism-based. More on the design: dose 5 mg/kg.
Settings: not given
On to `COc1ccccc1-c1c2n(c(=O)n(CCCCN3CCC(c4c[nH]c5ccccc45)CC3)c1=O)CCCC2`, for which the deltaT is -0.3 °C.

With `O=c1c(-c2ccccc2)c2n(c(=O)n1CCCCN1CCC(c3c[nH]c4ccccc34)CC1)CCCC2`, the deltaT is -0.2 °C.

A further assay is filed under the species Mus musculus. As to conditions: Swiss albino, 10 mg/kg.
Description: Effect on hypothermia in Swiss albino mouse assessed as change in rectal body temperature at 10 mg/kg, ip dosed 15 mins after 0.1 mg/kg, sc WAY 100635 challenge measured after 60 mins by inducible hypothermia test
On to `O=c1c(-c2ccccc2)c2n(c(=O)n1CCCCN1CCC(c3c[nH]c4ccccc34)CC1)CCCC2`, for which the deltaT was -0.2 °C.

For a further assay, the system named is Mus musculus. Description: Effect on hypothermia in Swiss albino mouse assessed as change in rectal body temperature at 5 mg/kg, ip after 30 mins by inducible hypothermia test. In kind it is functional, organism-based. More on the design: dose 5 mg/kg.
Settings: not given
With `COc1ccccc1-c1c2n(c(=O)n(CCCCN3CCC(c4c[nH]c5ccccc45)CC3)c1=O)CCCC2`, the deltaT was -0.8 °C.

Consider `O=c1c(-c2ccccc2)c2n(c(=O)n1CCCCN1CCC(c3c[nH]c4ccccc34)CC1)CCCC2`, for which the deltaT is -0.7 °C.

For the next assay, the system named is Mus musculus. Description: Effect on hypothermia in Swiss albino mouse assessed as change in rectal body temperature at 5 mg/kg, ip after 120 mins by inducible hypothermia test. The class given is functional, organism-based. On the set-up: dose 5 mg/kg.
Settings: not given
As for `COc1ccccc1-c1c2n(c(=O)n(CCCCN3CCC(c4c[nH]c5ccccc45)CC3)c1=O)CCCC2`, the deltaT was -0.2 °C.

`O=c1c(-c2ccccc2)c2n(c(=O)n1CCCCN1CCC(c3c[nH]c4ccccc34)CC1)CCCC2`: the deltaT is -0.1 °C.

A further assay is filed under the species Mus musculus. As to conditions: Swiss albino, 10 mg/kg. The source holds these as a separate data set.
Description: Effect on hypothermia in Swiss albino mouse assessed as change in rectal body temperature at 10 mg/kg, ip dosed 15 mins after 0.1 mg/kg, sc WAY 100635 challenge measured after 30 mins by inducible hypothermia test
`O=c1c(-c2ccccc2)c2n(c(=O)n1CCCCN1CCC(c3c[nH]c4ccccc34)CC1)CCCC2`: the deltaT was -0.5 °C.

For another assay, the system named is Mus musculus. The assay is described as follows: Effect on hypothermia in Swiss albino mouse assessed as change in rectal body temperature at 20 mg/kg, ip after 90 mins by inducible hypothermia test. The class given is functional, organism-based.
Settings: not given
On the set-up: dose 20 mg/kg.
For the molecule `COc1ccccc1-c1c2n(c(=O)n(CCCCN3CCC(c4c[nH]c5ccccc45)CC3)c1=O)CCCC2`, the deltaT was -0.2 °C.

The next assay deals with Mus musculus. Description: Effect on hypothermia in Swiss albino mouse assessed as change in rectal body temperature at 10 mg/kg, ip after 120 mins by inducible hypothermia test. In kind it is functional, organism-based. On the set-up: dose 10 mg/kg.
Settings: not given
Consider `COc1ccccc1-c1c2n(c(=O)n(CCCCN3CCC(c4c[nH]c5ccccc45)CC3)c1=O)CCCC2`, for which the deltaT was -0.2 °C.

As for `O=c1c(-c2ccccc2)c2n(c(=O)n1CCCCN1CCC(c3c[nH]c4ccccc34)CC1)CCCC2`, the deltaT was -0.1 °C.

The next assay concerns Mus musculus. The assay is described as follows: Effect on hypothermia in Swiss albino mouse assessed as change in rectal body temperature at 20 mg/kg, ip after 60 mins by inducible hypothermia test.
Settings: not given
In kind it is functional, organism-based. On the set-up: dose 20 mg/kg.
For the molecule `COc1ccccc1-c1c2n(c(=O)n(CCCCN3CCC(c4c[nH]c5ccccc45)CC3)c1=O)CCCC2`, the deltaT is -0.5 °C.

What is called Ki is a measure of affinity in units of concentration, obtained from inhibition or displacement. A lower Ki goes with a stronger hold on the target.
